In patent US10875830B2, “Method of treatment” (priority 2016, dated 2020):
Where two headings read alike, the source gives them in different places.

How the values were obtained:
[1] = test system: P. aeruginosa PAO1 pqsA::lux; test: pqsA::lux promoter fusion biosensor in P. aeruginosa PAO1-L (AQ-dependent quorum sensing); type: cell-based, Pseudomonas aeruginosa; settings: for IC50: Pseudomonas aeruginosa, PAO1, read-out: IC50, pqsA::lux expression; for inhibition of light output / pqsA expression at high concentrations: FIG. 6 and 7
Method: The expression of rhl and las AHL- and the pqsA AQ-synthase genes was evaluated using lux-based lasl (FIG. 1), rhll (FIG. 2) and pqsA (FIG. 3) chromosomally integrated promoter fusions. Luminescence was quantified as a function of bacterial growth. The applicant further determined that none of the lactams is growth inhibitory at 100 μM using a large number of strains (figure not shown).
To determine the relative inhibitory activities (IC50s) of 4-(4-chlorophenyl)-5-methylene-pyrrol-2-one (Ref. 488) and 5-methylene-4-(p-tolyl)pyrrol-2-one (Ref. 491), dose response curves were constructed using the same biosensor strain (P. aeruginosa PAO1 pqsA::lux; Fletcher et al, 2007; Ilangovan et al 2013). This strain produces light in response to the endogenous production of AQs such as PQS and HHQ.

PqsR = target: T1, PqsR (Pseudomonas aeruginosa, UniProt Q9I4X0); test: PQS-dependent pqsA::lux expression in AQ-non producing PAO1-L ΔpqsA (PqsR antagonism); type: cell-based
T1 construct: endogenous in cells; host or cells: P. aeruginosa PAO1-L ΔpqsA, chromosomal pqsA::lux fusion
T1 sequence (Q9I4X0 whole entry, the tested form may be a part): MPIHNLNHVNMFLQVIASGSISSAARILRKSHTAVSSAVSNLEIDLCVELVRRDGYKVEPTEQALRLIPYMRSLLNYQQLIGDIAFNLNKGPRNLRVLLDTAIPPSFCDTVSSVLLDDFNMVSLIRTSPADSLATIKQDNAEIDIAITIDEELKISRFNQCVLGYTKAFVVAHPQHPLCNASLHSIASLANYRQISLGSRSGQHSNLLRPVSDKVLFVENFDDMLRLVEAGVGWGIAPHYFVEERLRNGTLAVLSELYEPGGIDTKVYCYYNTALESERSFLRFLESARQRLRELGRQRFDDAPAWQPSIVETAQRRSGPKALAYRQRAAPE
Excerpt: The inhibitory action of 4-(4-chlorophenyl)-5-methylene-pyrrol-2-one (Ref. 488) may involve inhibition of AQ biosynthesis or 4-(4-chlorophenyl)-5-methylene-pyrrol-2-one (Ref. 488) may behave like an antagonist and block the PQS receptor, PqsR. […] Experiments were therefore designed to determine the nature and degree of 4-(4-chlorophenyl)-5-methylene-pyrrol-2-one (Ref. 488) inhibitory activity.
By using the AQ-non producing P. aeruginosa strain PAO1-L ΔpqsA, pqsA::lux, the EC50 value for the native PqsR agonist, PQS was calculated as ˜2 μM (Ilangovan et al. 2013).
The experiment shown in FIG. 8 was then repeated using 4-(4-chlorophenyl)-5-methylene-pyrrol-2-one (Ref. 488) concentrations of 0, 50, 100 and 200 μM.
A partial agonist is a molecule that can bind to and activate a receptor resulting in a non-complete response compared with a full agonist. […] This contrasts with its activity as an antagonist in the presence of 10 or 40 μM PQS.

[2] = test system: P. aeruginosa strain PAO1-L; test: pyocyanin production by PAO1-L, visual assessment; type: cell-based, Pseudomonas aeruginosa; settings: 100 μM (vial 2), 8 h at 37° C., qualitative
Excerpt: Pyocyanin is a blue redox-active secondary metabolite and a putative signalling molecule in P. aeruginosa (Jayaseelan et al, 2014). The pyocyanin biosynthetic (phz) genes are regulated by QS and in part via the transcriptional regulator PqsR acting through PqsE (Rampioni et al 2011).
Although qualitative, this observation offers further confirmation of the inhibitory effects of lactam 4-(4-chlorophenyl)-5-methylene-pyrrol-2-one (Ref. 488) on AQ-dependent QS.

[3] = test system: P. aeruginosa PA14 pqsA'::lux; test: pqsA'::lux fusion in P. aeruginosa PA14; type: cell-based; settings: Pseudomonas aeruginosa, PA14, read-out: IC50, pqsA'::lux expression in PA14
Excerpt: To investigate the inhibitory effect of 4-(4-chlorophenyl)-5-methylene-pyrrol-2-one (Ref. 488) on P. aeruginosa PA14, a pqsA′::lux fusion was introduced onto the chromosome.

PqsABCD = test: AQ (HHQ) biosynthesis by PqsABCD, TLC with biosensor overlay; type: cell-based, Pseudomonas aeruginosa; settings: 200 μM, PAO1-N ΔpqsAHR pBBR-pqsABCD, overnight in LB
Excerpt: To determine whether 4-(4-chlorophenyl)-5-methylene-pyrrol-2-one (Ref. 488) is capable of inhibiting the enzymes (PqsABCD) involved in AQ biosynthesis, the P. aeruginosa PAO1-N ΔpqsAHR was exploited. This mutant cannot produce AQs because the genes coding for the key biosynthetic enzymes (PqsA and PqsH) and regulation (PqsR) have been deleted. To restore AQ production in a PqsR-independent manner in PAO1-N ΔpqsA, the pqsABCD genes were introduced on a plasmid (pBBR pqsABCD; Niewerth et al. 2011). P. aeruginosa PAO1-N ΔpqsAHR and P. aeruginosa PAO1-N ΔpqsAHR pBBR pqsABCD were both incubated overnight in LB with and without 4-(4-chlorophenyl)-5-methylene-pyrrol-2-one (Ref. 488) (200 μM), resuspended to an OD600 1.0. The cultures were extracted with acidified ethyl acetate, the organic phase removed, dried and resuspended in methanol subjected to thin layer chromatography (TLC).
After chromatography using a dichloromethane-methanol mobile phase, the TLC plates were overlaid with a thin agar layer containing the AQ biosensor strain PAO1-L ΔpqsA CTX::pqsA′-luxCDABE (Fletcher et al. 2007) incubated and examined for reporter output (FIG. 13). […] The biosensor strain produces light (FIG. 13 panel C) and pyocyanin (FIG. 13 panel B) in response to AQs that bind to PqsR and activate the pqsA promoter.

[4] = test system: PAO1-N ΔpqsAHR pqsA'::lux; test: PqsR-independent pqsA'::lux expression in PAO1-N ΔpqsAHR; type: cell-based, Pseudomonas aeruginosa; settings: presence or absence of 40 μM PQS, FIG. 11
Excerpt: PQS is capable of weakly activating pqsA in the absence of PqsR via a mechanism that is not fully understood but appears to depend on the iron chelating properties of PQS. The aim of this experiment was to clarify whether lactam 4-(4-chlorophenyl)-5-methylene-pyrrol-2-one (Ref. 488) is also inhibitory for pqsA expression via the PqsR independent pathway. As previously described, the pqsA′::lux biosensor based on the triple mutant PAO1-N ΔpqsAHR cannot produce AQs and lacks pqsR but still responds to exogenous PQS. This response is however much weaker that the PqsR-dependent response.

Structure (SMILES)	IC50 [1] [µM]	inhibition of light output / pqsA expression at high concentrations [1]	EC50 (PqsR; EC50 of PQS for pqsA::lux expression in the presence of lactam 488, fixed concentration of 488 (215 μM), range of PQS concentrations, FIG. 8) [µM]	EC50 (PqsR; EC50 of PQS for pqsA::lux expression, PQS alone, PAO1-L ΔpqsA pqsA::lux) [µM]	EC50 (PqsR; PQS alone, PAO1-L ΔpqsA pqsA::lux, read-out: EC50 of PQS for pqsA::lux expression) [µM]	mode of action on PQS-dependent pqsA::lux expression (PqsR; 488 at 0, 50, 100 and 200 μM, range of PQS, FIG. 9)	restoration of light output by PQS in the presence of the lactam (PqsR; 488 at 50, 100, 200 μM, FIG. 9)	partial agonist activity (activation of pqsA expression) (PqsR; concentrations up to 800 μM, without PQS, FIG. 10)	fold increase of PQS EC50 caused by the lactam (PqsR; fixed concentration of 488 (215 μM)) [fold]	pyocyanin production [2]	IC50 [3] [µM]	inhibition of the PqsR-dependent pqsA::lux promoter fusion (screen) ([1]; lactams at 100 μM, FIG. 3)	inhibition of HHQ biosynthesis (PqsABCD)	effect on the PqsR-independent expression of pqsA [4]
C=C1NC(=O)C=C1c1ccc(C)cc1 [Lactam 491, 5-methylene-4-(p-tolyl)pyrrol-2-one]	44	did not inhibit pqsA expression as strongly	–	–	–	–	–	–	–	–	–	–	–	–
CCCCCCCc1[nH]c2ccccc2c(=O)c1O [PQS, 2-heptyl-3-hydroxy-4-(1H)-quinolone, reference compound]	–	–	31	~2	2	–	–	–	–	–	–	–	–	–
C=C1NC(=O)C=C1c1ccc(Cl)cc1 [Lactam 488, 4-(4-chlorophenyl)-5-methylene-pyrrol-2-one]	22	completely inhibited light output	–	–	–	competitive antagonist	fully restoring light output in the presence of 50 μM but not 100 μM or 200 μM	no partial agonist activity	~15	inhibition of pyocyanin production	17.9	most potent inhibitor	did not inhibit HHQ biosynthesis	small inhibitory effect
